For data set [1] the following is noted: from the reported stability constants.
Data set [2] relates to normal retinal epithelia telomerase immortalized cells (hTERT-RPE1). Put plainly: Fluorometric microculture cytotoxicity assay (FMCA), hTERT-RPE1. To be noted: for cytostatic effect (alone): FMCA, 72 h. The format is cell-based.
The test system of data set [3] is human adenocarcinoma cells (SW620). Put plainly: Fluorometric microculture cytotoxicity assay (FMCA), SW620. The format is cell-based. To be noted: for cytostatic effect (alone): FMCA, 72 h. The procedure: (§1) HCT-8 cells were grown in RPMI 1640 medium with sodium pyruvate (1 mM) and 10% horse serum. SW620 were grown in ATCC-formulated Leibovitz's L-15 Medium with 10% fetal bovine serum. Cells were kept at 37° C. in a humidified atmosphere containing 5% carbon dioxide. The cells were harvested in the log-phase for experimental use. The fluorometric microculture cytotoxicity assay (FMCA) was used to investigate the cytostatic activity of oxaliplatin, MnDPDP or DPDP and combinations thereof. FMCA is based on measurement of fluorescence generated from hydrolysis of fluorescein diacetate (FDA) to fluorescein by cells with intact plasma membranes. Briefly, 96-well microtiter plates were freshly prepared with drug solutions in triplicates at 10 times the desired drug concentrations. Cell suspensions were seeded into the drug-prepared plates with 20 000 cells per well and plates were then incubated for 72 h. After incubation, the plates were washed, FDA was added, and after 50 min of incubation the fluorescence generated (excitation 480 nm) was measured at 538 nm in a fluorometer (Fluorostar Optima, BMG Technologies). The fluorescence is proportional to the number of cells with intact plasma membrane present in the well.

Data set [4] deals with human ileocecal colorectal adenocarcinoma cells (HCT-8). Put plainly: Fluorometric microculture cytotoxicity assay (FMCA), HCT-8. To be noted: HCT-8 cells; for cytostatic effect (alone): FMCA, 72 h. Format: cell-based. The method, then: as §1
Data set [5] in a line: Fenton assay (competition with iron, H2DCF oxidation). To be noted: FIG. 4. The procedure: By permitting the chelator DPDP, the metal complexes MnDPDP and MnPLED to compete with iron in the Fenton assay, the stability of MnDPDP and MnPLED was compared.
H2O2 (100 μM) was added to initiate the production of hydroxyl radicals (HO.). The latter oxidize H2DCF (non-fluorescent 2′,7′-dichlorodihydrofluorescein; 5 μM) to fluorescent DCF (2′,7′-dichlorofluorescein). H2DCF was obtained by hydrolysing its acetate ester (H2DCF-DA)]. […] DPDP, MnDPDP and MnPLED at various concentrations were assayed for their iron-chelating capacity. Fluorescence was measured in an FL600 Microplate Fluorescence reader (Bio-Tek, Winooski, Vt., U.S.A.) at ex 485 nm and em 530 nm.

The subject of data set [6] is murine lymphoma J774 cells. To be noted: 24 h, MTT. The procedure: (§2) The viability of cells was measured using the MTT assay. Briefly, 20,000 SW480 or J774 cells were seeded per well on a 96-well plate and grown over night in Dulbecco's Modified Eagle's Medium (DMEM) containing 10% fetal bovine serum, 2 mM L-glutamine, 100 Ul/ml penicillin and 100 μg/ml streptomycin at 37° C. in humidified air with 5% CO2. Cells were then exposed for 24 h to 50 μM MnDPDP, 50 μM DPDP or 10 μM oxaliplatin at 37° C. The effect of combining 50 μM DPDP with 10 μM oxaliplatin on viability was also tested. The viability of the cells was then assessed by adding 5 mg/ml methylthiazoletetrazolium (MTT) to a final concentration of 0.5 mg/ml and incubating cells for a further 4 h at 37° C. The blue formazan that is formed by mitochondrial dehydrogenases of viable cells was then dissolved over night at 37° C. by adding 10% SDS and 10 mM HCl to a final concentration of 5% SDS and 5 mM HCl. Finally, the absorbance of the solution was read at 570 nm with a reference at 670 nm in a microplate reader Spectramax 340 (Molecular Devices, Sunnyvale, Calif., USA) connected to an Apple Macintosh computer running the program Softmax Pro V1.2.0 (Molecular Devices, Sunnyvale, Calif., USA).

The subject of data set [7] is human colon cancer SW480 cells. To be noted: 24 h, MTT. The procedure: as §2
The conditions of data set [8]: Rocklage et al., 1989; cited from earlier work.
For data set [9] the following is noted: Rocklage et al., 1989; cited from earlier work. This is another data set of the same source.
The conditions of data set [10]: Rocklage et al., 1989; cited from earlier work. The source holds these as a separate data set.
The conditions of data set [11]: pigs, ten minutes after injection; cited from earlier work.
The conditions of data set [12]: cited from earlier work.
Another data set concerns infarct size. To be noted: pigs; MnPLED 3 μmol/kg; cited from earlier work.

The values below come from US8377969B2, “Compounds for use in the treatment of cancer” (PledPharma AB, priority 2007, dated 2013).

In the case of `Cc1ncc(COP(=O)(O)O)c(CN(CCN(CC(=O)O)Cc2c(COP(=O)(O)O)cnc(C)c2O)CC(=O)O)c1O` [DPDP, N,N′-bis-(pyridoxal-5-phosphate)-ethylenediamine-N,N′-diacetic acid], the “how much more readily Mn^2+ dissociates than Zn^2+” value in [1] is recorded as “about 1000 times”. Also, the “potentiation of the cytostatic effects of oxaliplatin” value in [2] (100 μM with 8 μM oxaliplatin, FMCA 72 h, FIG. 3D) is “but not in normal cells”; in data set [3] (100 μM with 8 μM oxaliplatin, FMCA 72 h, FIG. 3B) it was “significantly (unpaired t-test) potentiated”; in [4] (100 μM with 8 μM oxaliplatin, FMCA 72 h, FIG. 3C), “significantly (unpaired t-test) potentiated”. The “cytostatic effect (alone)” value in data set [2], in [3] and in [4] was “Neither MnDPDP nor DPDP demonstrated any cytostatic effect” throughout. For the same compound, the “inhibition of the Fenton reaction” value in [5] (10 μM ferric iron, 100 μM cysteine, 100 μM H2O2) is given as “inhibited the Fenton reaction in a dose-dependent manner”. In [5] (10 μM ferric iron), the “concentration at which inhibition of the Fenton reaction started” value was 0.1 µM. The “concentration at which inhibition of the Fenton reaction was complete” value in data set [5] (10 μM ferric iron) is 10 µM. In addition, the “cytostatic activity in combination with oxaliplatin versus oxaliplatin alone” value in data set [6] (50 μM DPDP + 10 μM oxaliplatin) was “significantly more efficacious than oxaliplatin alone”; in data set [7] (50 μM DPDP + 10 μM oxaliplatin) it was “tendency, although not statistically significant (p<0.07), that DPDP in combination with oxaliplatin was more potent than oxaliplatin alone”. The cytostatic activity entry is reported as “significantly more efficacious to kill the lymphoma cells than MnDPDP” in data set [6] (50 μM, FIG. 2) and “statistically significant more efficacious than that of 50 μM MnDPDP” in data set [7] (50 μM, unpaired t-test, FIG. 1).

`O=C1[O][Pt]2([NH][C@@H]3CCCC[C@H]3[NH]2)[O]C1=O` [Oxaliplatin, oxaliplatin]: the “cytostatic effect (alone)” value was “only a slight effect at its highest concentration” in data set [2], “concentrations-dependent cytostatic effect” in data set [3] and “concentrations-dependent cytostatic effect” in [4].

Regarding `Cc1ncc(CO)c(CN(CCN(CC(=O)O)Cc2c(CO)cnc(C)c2O)CC(=O)O)c1O` [PLED, N,N′-dipyridoxyl ethylenediamine-N,N′-diacetic acid], the “stability constant with Fe^3+ (ferric iron)” value in data set [8] is on record as 36.88 logK. Further, the “stability constant with Mn^2+” value in data set [9] is 12.56 logK. For the same compound, the “how much more readily Mn^2+ dissociates than Zn^2+” value in data set [1] is on record as “about 1000 times”. For the same compound, in data set [10], the “stability constant with Zn^2+” value was 16.68 logK.

Regarding MnDPDP, the “replacement of manganese with zinc” value in data set [11] was “all manganese has been replaced with zinc”. Further, the administered manganese released entry in [12] (humans, intravenous injection) is “about 70%”. Also, in data set [12] (man, for a considerable amount of time), the “injected manganese that stays bound to the chelator” value was “about 30%”. The “injected MnDPDP transformed into MnPLED” value in data set [12] (man, shortly after intravenous injection) was “about 30%”. Also, the infarct size result in the data set on infarct size is reported as “did not reduce the infarct size”. Further, the “cytostatic effect (alone)” value in data set [2], in data set [3] and in data set [4] was “Neither MnDPDP nor DPDP demonstrated any cytostatic effect” in each case. The iron-chelating capacity entry in data set [5] (Fenton assay) is listed as “significantly higher than that of MnPLED”.
